# Assay: Disk Retention Assay (DRA) of CPC bioavailability in mouthrinse formulations
# Assay type: in vitro ADME
# Settings: mouthrinse formulation
# Text: In evaluating bioavailability and biological activity of quaternary ammonium antimicrobials in mouthwash formulations, an in vitro Disk Retention Assay (DRA) can be used to estimate drug bioavailability as well as an ex vivo Plaque Glycolysis and Regrowth Model (PGRM) to assess biological activity (S. J. Hunter-Rinderle, et al., “Evaluation of Cetylpyridinium Chloride-Containing Mouthwashes Using In Vitro Disk Retention and Ex Vivo Plaque Glycolysis Methods,” J. Clin. Den., 1997, 8:107-113). These assays are recommended for use in the proposed OTC monograph (Federal Register Vol. 68, No. 103 Part 356, “Oral Health Care Drug Products For Over-The-Counter Human Use; Antigingivitis/Antiplaque Drug Products; Establishment of a Monograph: Proposed Rules”).
# This method is designed as a performance assay to analyze mouthrinse formulations containing from about 0.03% to about 0.1% CPC to quantitatively determine the “free” (“unbound”) or “bioavailable” level of CPC needed for clinical efficacy. The DRA assay measures the amount of CPC “binding” to standardized cellulose filter disks during filtration of an undiluted mouthrinse sample. The “bioavailable” CPC binds to the hydroxyl groups on the cellulose fiber during filtration while CPC, which has been rendered “non-bioavailable” (or “bound”)” through interactions with mouthrinse components, simply passes through the filter paper, i.e., the positive charge on the compound is no longer available for binding to the negatively charged cellulose disks. In this way, the DRA test provides an estimate of the amount of CPC available for binding to bacteria and mucosal surfaces during use of the mouthrinse. DRA measurements of CPC availability have been positively correlated to the results of in vitro microbiological assays and in vivo germ kill tests. Historically, cellulose fibers have been used in other applications to similarly monitor biological activity of drug actives (“Dairy Products” in Official Methods of Analysis of the Association of […] Analytical Chemists. 13th ed., 1980, Chapter 16:256).
# “Bioavailable” CPC is the amount of CPC bound to or adsorbed to cellulose disks. This is determined by measuring the differences in CPC concentration in the mouthrinse before and after exposure to standardized cellulose disks. The method has been validated and shown to perform with acceptable accuracy, precision, and selectivity. A more detailed description of the test is provided below.
# For example, a formulation comprising 0.05% CPC at 72% bioavailability would provide 360 ppm CPC. […] Determination of CPC bioavailability in a finished product is important to product performance as it readily defines the amount (concentration) of active available for deposition at the site of action. Because the positively charged (cationic) hydrophilic region is critical to antimicrobial activity, any formulation component that diminishes the activity of this cationic group or that competes with the group may inactivate the product.
# Desirably, a formulation containing 0.05% CPC would have at least about 65% bioavailability to deliver at least about 324 ppm bioavailable CPC. A formulation containing a lower level of CPC such as 0.04% would need to have at least about 81% bioavailability to deliver the minimum required level of bioavailable CPC for efficacy.
smiles,measurement,setting,value
"CCCCCCCCCCCCCCCC[n+]1ccccc1 [CPC, cetylpyridinium chloride]",% bioavailable CPC,0.0 % Poloxamer,94.24%
same,% bioavailable CPC,0.05 % Poloxamer,84.42%
same,% bioavailable CPC,0.1 % Poloxamer,61.14%
same,% bioavailable CPC,0.15 % Poloxamer,57.49%
same,% bioavailable CPC,0.2 % Poloxamer,52.96%
same,% bioavailable CPC,0.25 % Poloxamer,53.14%
same,% bioavailable CPC,0.5 % Poloxamer,42.63%
same,% bioavailable CPC,0.75 % Poloxamer,38.4%
same,% bioavailable CPC,1.00 % Poloxamer,35.09%
same,bioavailability of CPC,level of 0.1% surfactant (Poloxamer) or higher,unacceptable bioavailability

# Reference: patent US9241885B2, “Oral care compositions comprising increased bioavailable levels of quaternary ammonium antimicrobials” (THE PROCTER & GAMBLE COMPANY, priority 2004, dated 2016)
